Experimental data as given in publication doi:10.1101/2025.10.24.684335v1 (bioRxiv, 2025).

Columns and labels:
Type in all cases: cell-based, human
RAGE = RAGE expression in hCMEC/D3 membrane fraction, Western blot; settings: normalized to calnexin
AKT = AKT phosphorylation; settings: normalized to GAPDH
ERK = ERK phosphorylation in hCMEC/D3 monolayers, Western blot; settings: normalized to GAPDH
claudin-5 = test: Claudin-5 immunocytochemistry in hCMEC/D3 monolayers, confocal microscopy; settings: 10 nM butyrate 6 h, 1 μM Aβ42 for the last hour; AF647 immunofluorescence
[1] = 10 nM butyrate 6 h with 50 nM insulin for 5 min, p<0.05

## Aβ42: unlabeled amyloid beta 42 peptide supplied by Aapptec [reference compound]
RAGE; 1 μM Aβ42 for 1 h alone, p<0.05
  RAGE expression, fold increase vs control: 2.4 fold

## insulin: insulin used at 50 nM to stimulate insulin signaling
AKT; 50 nM insulin 5 min alone
  AKT phosphorylation vs untreated group: not statistically significant
ERK; 50 nM insulin 5 min alone, p<0.001
  ERK phosphorylation, fold increase vs untreated group: 3 fold

## CCCC(=O)O [butyrate, sodium butyrate]
AKT; [1]
  AKT phosphorylation, fold increase vs insulin alone-treated group: 3 fold
ERK; [1]
  ERK phosphorylation, fold increase vs insulin alone-treated group: ~1.3 fold
RAGE; butyrate 5 h then co-incubation with 1 μM Aβ42 for 1 h
  RAGE expression vs Aβ42 alone (reversal of Aβ42-induced increase): not significant
claudin-5
  Claudin-5 expression vs Aβ42 alone group: increased
